Columns and labels:
[1] = test system: JAK family members (TYK2, JAK2); test: JAK auto-phosphorylation in cells (immunoprecipitation, Western blot); assay type: cell-based; conditions: U266 15 μM 1 hour (TYK2); HEL 20 μM 6 hours (JAK2)
Experimental: (§1) Western blotting was performed as previously described (Battle T E, Arbiser J, & Frank D A (2005) The natural product honokiol induces caspase dependent apoptosis in B-cell chronic lymphocytic leukemia (B-CLL) cells. Blood 106(2):690-697). Antibodies to phospho-MAPK (9101), total MAPK (9102), phospho-Y705 STAT3 (9131), phospho-S6 (2215), total S6 (2217), phospho-4E-BP1 (9451), total 4E-BP1 (9644), total RSK (9355), phospho-S6K (9234, 85 used at 1:5000), total S6K (2708), phospho-eIF2α (9721, used at 1:1000), total eIF2α (5324), ATF4 (11815, used at 1:1000), PDGFRβ (3169), IGF1Rβ (9750), EGFR (2232), and HER2 (2242) were from Cell Signaling Technology. Phospho-RSK antibody was from R&D (AF889). Antibodies to total STAT3 (sc-482) and gp130 (sc-656, used at 1:1000) were from Santa Cruz Biotechnology. […] Cell viability was measured as ATP-dependent luminescence by Cell Titer Glo (Promega).
To understand how atovaquone inhibits STAT3 phosphorylation, the possibility that atovaquone decreases the kinase activity of JAKs, which are responsible for STAT3 activation in the systems previously tested was considered. To assess kinase activity, the extent of kinase auto-phosphorylation, which provides a cellular readout of kinase activity, was first analyzed. […] Due to technical limitations, tyrosine phosphorylation of other JAK family members was not detected in U266 cells. […]

[2] = test system: PDGFR-β, EGFR, HER2, and IGF1R-β; test: Western blot of other receptors; assay type: cell-based; conditions: MEF, MDA-MB-468, SKBR3; 25 μM, 6 or 12 hours
Experimental: as §1, with “Biotechnology. Phospho-S727 STAT3 antibody was described previously (229). REDD1 antibody was from Proteintech (10638-1-AP, used at 1:1000). Antibody recognizing full-length and cleaved ATF6 was from Abcam (ab122897, used at 1:1000). Antibodies to tubulin (T5168) and beta actin (A5316) were from Sigma.” for “Biotechnology.”
MEF, MDA-MB-468, and SKBR3 cells were treated with atovaquone (25 μM) for 6 or 12 hours, then analyzed by Western blot for expression of gp130 and various other receptors. […]

## O=C1C(O)=C([C@H]2CC[C@H](c3ccc(Cl)cc3)CC2)C(=O)c2ccccc21 [atovaquone, trans-2-[4-(4-chlorophenyl)cyclohexyl]-3-hydroxy-1,4-naphthalenedione]
[1]
  auto-phosphorylation of JAK family members in cells: inhibited the auto-phosphorylation of JAK family members
[2]
  levels of other receptors (PDGFR-β, EGFR, HER2, IGF1R-β): not affected

Source: patent publication US10130590B2, “Methods of treating cancer with atovaquone-related compounds” (DANA-FARBER CANCER INSTITUTE, INC., priority 2013, dated 2018)
